Laboratory results taken from patent publication US10322191B2, “Targeted conjugates and particles and formulations thereof” (TARVEDA THERAPEUTICS, INC., priority 2014, dated 2019).
Like-named read-outs stand apart in the source and are kept apart here.

What was measured:
[1] = test system: NCI-H524 (ATCC) human lung cancer cells; format: cell-based; conditions: Table 15
Method: Conjugates were assessed in an in vitro assay evaluating inhibition of cell proliferation. NCI-H524 (ATCC) human lung cancer cells were plated in 96 well, V-bottomed plates (Costar) at a concentration of 5,000 cells/well and 24 hours later were treated with compound for 2 hours and further incubated 70 hours. Compound starting dose was 20 μM and three-fold serial dilutions were done for a total of ten points. After 2 hours of treatment, cells were spun down, the drug containing media was removed, and fresh complete medium was added and used to resuspend the cells, which were spun again. After removal of the wash media, the cells were resuspended in complete medium, then transferred into white walled, flat bottomed 96 well plates. […] Proliferation was measured using CellTiter Glo reagent using the standard protocol (Promega) and a Glomax multi+detection system (Promega). Percent proliferation inhibition was calculated using the following formula: % inhibition=(control-treatment)/control*100. Control is defined as vehicle alone. IC50 curves were generated using the nonlinear regression analysis (four parameter) with GraphPad Prism 6.
Conjugates of the present invention were assessed in an in vitro assay evaluating inhibition of cell proliferation. NCI-H524 (ATCC) human lung cancer cells were plated in 96 well, V-bottomed plates (Costar) at a concentration of 5,000 cells/well. 24 hours later, cells were treated with either conjugate for 2 hours and further incubated 70 hours, or for octreotide competition experiments, treated with 100 μM octreotide for 30 min, and then treated with conjugate for 2 hours, and further incubated for 70 hours. Conjugate starting dose was 20 μM and three fold serial dilutions were done for a total of ten points. After 2 hours of treatment, cells were spun down, the drug containing media was removed, and fresh complete medium was added and used to resuspend the cells, which were spun again. After removal of the wash media, the cells were resuspended in complete medium, then transferred into white walled, flat bottomed 96 well plates. […] Proliferation was measured using CellTiter Glo reagent using the standard protocol (Promega) and a Glomax multi+detection system (Promega). Percent proliferation inhibition was calculated using the following formula: % inhibition=(control-treatment)/control*100. Control is defined as vehicle alone. IC50 curves were generated using the nonlinear regression analysis (four parameter) with GraphPad Prism 6.
Conjugates of the present invention were tested for their activity dependence on the somatostatin receptor. Active agent Z in the conjugate was selected from auristatin, carbazitaxel, DM1, doxorubicin, platinum, SN-38 and vinblastine. Active agent Z is connected to octreotide with various linkers. Proliferation IC50 values of the conjugates were measured. Proliferation IC50 values of the conjugates without octreotide competition were also measured. The ratio of IC50 with octreotide competition and IC50 without octreotide competition is an indicator of whether activity is at least partially dependent on bind to the somatostatin receptor.

[2] = test system: NCI-H69 SCLC (small cell lung cancer) tumors; experiment: H69 tumor DM-1 levels by LC/MS-MS; format: in vivo, mice; conditions: 24 hour time point; dosed at 1 mg/kg (conjugates, nanoparticles) or 0.4 mg/kg for DM-1
Method: To examine the ability of conjugates of the present invention to accumulate in tumors, a murine cancer model was used. All mice were treated in accordance with the OLAW Public Health Service Policy on Human Care and Use of Laboratory Animals and the ILAR Guide for the Care and Use of Laboratory Animals. All in vivo studies were conducted following the protocols approved by the Blend Therapeutics Institutional Animal Care and Use Committee. Animals were inoculated with 2.5×10{circumflex over (0)}6 NCI-H69 SCLC (small cell lung cancer) cells in 1:1 RPMI 1640 (Invitrogen, Carlsbad, Calif.)/Matrigel® (BD Biosciences, San Jose, Calif.) via subcutaneous injection to the right flank. Tumors were allowed to reach an approximate volume of ˜500 mm3. Animals were then randomized into treatment groups of 3 animals per time point and were dosed at 1 mg/kg (10% propylene glycol in water for injection for free conjugates, or 10% sucrose for nanoparticles), or 0.4 mg/kg for DM-1 (10% propylene glycol in water for injection). The 24 hour time point was used as a benchmark across conjugates.
Tumor DM-1 levels were determined by liquid chromatography mass spectrometry (LC/MS-MS). Four volumes of 5 mM 6-maleimidohexanoic acid to 1 part tumor v/w was added and homogenized for about 10-15 seconds with a handheld homogenizer. 10 μL of 500 mM Tris(2-carboxyethyl)phosphine was added to 100 uL of tumor homogenate, mixed well and incubated at room temperature for about 5-15 min. 200-300 uL of acetonitrile was used to precipitate proteins in tumor homogenate, samples were centrifuged for 5 min, and supernatant was injected onto LC/MS-MS system for DM-1 analysis.

[3] = treated 2 hours, further incubated 70 hours, read-out: H524 IC50
[4] = read-out: H524 IC50+ 100 uM octreotide, 100 μM octreotide for 30 min, then conjugate 2 hours, 70 hours incubation

SMILES | IC50 [1, 3] [nM] | IC50 [1, 4] [nM] | H69 tumor DM-1 levels [2] [nM]
COc1cc2cc(c1Cl)N(C)C(=O)C[C@H](OC(=O)[C@H](C)N(C)C(=O)CCSSC[C@H](NC(=O)CC[C@H]1C(=O)N[C@@H](Cc3ccc(O)cc3)C(=O)N[C@H](Cc3c[nH]c4ccccc34)C(=O)N[C@@H](CCCCN)C(=O)N[C@@H]([C@@H](C)O)C(=O)N[C@@H](Cc3ccccc3)C(=O)N1C)C(=O)NC(C)(C)CC(C)(C)C)[C@]1(C)O[C@H]1[C@H](C)[C@@H]1C[C@@](O)(NC(=O)O1)[C@H](OC)/C=C/C=C(\C)C2 [Conjugate 16] | 223 | 398 | 96.4
COc1cc2cc(c1Cl)N(C)C(=O)C[C@H](OC(=O)[C@H](C)N(C)C(=O)CCSSCCNC(=O)[C@@H](NC(=O)[C@@H]1CSSC[C@H](NC(=O)[C@H](N)Cc3ccccc3)C(=O)N[C@@H](Cc3ccc(O)cc3)C(=O)N[C@H](Cc3c[nH]c4ccccc34)C(=O)N[C@@H](CCCCN)C(=O)N[C@@H]([C@@H](C)O)C(=O)N1)[C@@H](C)O)[C@]1(C)O[C@H]1[C@H](C)[C@@H]1C[C@@](O)(NC(=O)O1)[C@H](OC)/C=C/C=C(\C)C2 [Conjugate 35] | 253 | 1000 | 23.2
COc1cc2cc(c1Cl)N(C)C(=O)C[C@H](OC(=O)[C@H](C)N(C)C(=O)CCSSCCCN[C@H](Cc1ccccc1)C(=O)N[C@H]1CSSC[C@@H](C(=O)N[C@H](C(=O)O)[C@@H](C)O)NC(=O)[C@H]([C@@H](C)O)NC(=O)[C@H](CCCCN)NC(=O)[C@@H](Cc3c[nH]c4ccccc34)NC(=O)[C@H](Cc3ccc(O)cc3)NC1=O)[C@]1(C)O[C@H]1[C@H](C)[C@@H]1C[C@@](O)(NC(=O)O1)[C@H](OC)/C=C/C=C(\C)C2 [Conjugate 80] | 152 | 157 | 91.2
COc1cc2cc(c1Cl)N(C)C(=O)C[C@H](OC(=O)[C@H](C)N(C)C(=O)CCSSCCOc1ccc(C[C@@H](N)C(=O)N[C@H]3CSSC[C@@H](C(=O)N[C@H](C(=O)O)[C@@H](C)O)NC(=O)[C@H]([C@@H](C)O)NC(=O)[C@H](CCCCN)NC(=O)[C@@H](Cc4c[nH]c5ccccc45)NC(=O)[C@H](Cc4ccc(O)cc4)NC3=O)cc1)[C@]1(C)O[C@H]1[C@H](C)[C@@H]1C[C@@](O)(NC(=O)O1)[C@H](OC)/C=C/C=C(\C)C2 [Conjugate 111] | 123 | 742 | 82.6
COc1cc2cc(c1Cl)N(C)C(=O)C[C@H](OC(=O)[C@H](C)N(C)C(=O)CCSSCCNC(=O)CC[C@H]1C(=O)N[C@@H](Cc3ccc(O)cc3)C(=O)N[C@H](Cc3c[nH]c4ccccc34)C(=O)N[C@@H](CCCCN)C(=O)N[C@@H]([C@@H](C)O)C(=O)N[C@@H](Cc3ccccc3)C(=O)N1C)[C@]1(C)O[C@H]1[C@H](C)[C@@H]1C[C@@](O)(NC(=O)O1)[C@H](OC)/C=C/C=C(\C)C2 [Conjugate 14] | 298 | 877 | 70.1
COc1cc2cc(c1Cl)N(C)C(=O)C[C@H](OC(=O)[C@H](C)N(C)C(=O)CCSSC[C@H](NC(=O)[C@@H]1CSSC[C@H](NC(=O)[C@H](N)Cc3ccccc3)C(=O)N[C@@H](Cc3ccc(O)cc3)C(=O)N[C@H](Cc3c[nH]c4ccccc34)C(=O)N[C@@H](CCCCN)C(=O)N[C@@H]([C@@H](C)O)C(=O)N1)C(N)=O)[C@]1(C)O[C@H]1[C@H](C)[C@@H]1C[C@@](O)(NC(=O)O1)[C@H](OC)/C=C/C=C(\C)C2 [Conjugate 57] | 136 | 1650 | 243
CCCCN(CCSSCCC(=O)N(C)[C@@H](C)C(=O)O[C@H]1CC(=O)N(C)c2cc(cc(OC)c2Cl)C/C(C)=C/C=C/[C@@H](OC)[C@@]2(O)C[C@H](OC(=O)N2)[C@@H](C)[C@@H]2O[C@@]12C)C(=O)CC[C@H]1C(=O)N[C@@H](Cc2ccc(O)cc2)C(=O)N[C@H](Cc2c[nH]c3ccccc23)C(=O)N[C@@H](CCCCN)C(=O)N[C@@H]([C@@H](C)O)C(=O)N[C@@H](Cc2ccccc2)C(=O)N1C [Conjugate 22] | 332 | 741 | 145
COc1cc2cc(c1Cl)N(C)C(=O)C[C@H](OC(=O)[C@H](C)N(C)C(=O)CCSSCCC(=O)NCCNC(=O)[C@@H](NC(=O)[C@@H]1CSSC[C@H](NC(=O)[C@H](N)Cc3ccccc3)C(=O)N[C@@H](Cc3ccc(O)cc3)C(=O)N[C@H](Cc3c[nH]c4ccccc34)C(=O)N[C@@H](CCCCN)C(=O)N[C@@H]([C@@H](C)O)C(=O)N1)[C@@H](C)O)[C@]1(C)O[C@H]1[C@H](C)[C@@H]1C[C@@](O)(NC(=O)O1)[C@H](OC)/C=C/C=C(\C)C2 [Conjugate 43] | 1160 | 2050 | 
COc1cc2cc(c1Cl)N(C)C(=O)C[C@H](OC(=O)[C@H](C)N(C)C(=O)CCSSCCC(=O)N1CCN(C(=O)CC[C@H]3C(=O)N[C@@H](Cc4ccc(O)cc4)C(=O)N[C@H](Cc4c[nH]c5ccccc45)C(=O)N[C@@H](CCCCN)C(=O)N[C@@H]([C@@H](C)O)C(=O)N[C@@H](Cc4ccccc4)C(=O)N3C)CC1)[C@]1(C)O[C@H]1[C@H](C)[C@@H]1C[C@@](O)(NC(=O)O1)[C@H](OC)/C=C/C=C(\C)C2 [Conjugate 26] | 787 | 1160 | 
COc1cc2cc(c1Cl)N(C)C(=O)C[C@H](OC(=O)[C@H](C)N(C)C(=O)CCSSCCC(=O)NCCCC[C@@H](N)C(=O)N[C@H]1CSSC[C@@H](C(=O)N[C@H](C(=O)O)[C@@H](C)O)NC(=O)[C@H]([C@@H](C)O)NC(=O)[C@H](CCCCN)NC(=O)[C@@H](Cc3c[nH]c4ccccc34)NC(=O)[C@H](Cc3ccc(O)cc3)NC1=O)[C@]1(C)O[C@H]1[C@H](C)[C@@H]1C[C@@](O)(NC(=O)O1)[C@H](OC)/C=C/C=C(\C)C2 [Conjugate 113] | 1080 | 4920 | 
COc1cc2cc(c1Cl)N(C)C(=O)C[C@H](OC(=O)[C@H](C)N(C)C(=O)CCSSCCC(=O)N[C@H](Cc1ccccc1)C(=O)N[C@H]1CSSC[C@@H](C(=O)N[C@H](C(=O)O)[C@@H](C)O)NC(=O)[C@H]([C@@H](C)O)NC(=O)[C@H](CCCCN)NC(=O)[C@@H](Cc3c[nH]c4ccccc34)NC(=O)[C@H](Cc3ccc(O)cc3)NC1=O)[C@]1(C)O[C@H]1[C@H](C)[C@@H]1C[C@@](O)(NC(=O)O1)[C@H](OC)/C=C/C=C(\C)C2 [Conjugate 74] | 549 | 562 | 
COc1cc2cc(c1Cl)N(C)C(=O)C[C@H](OC(=O)[C@H](C)N(C)C(=O)CCSSCCC(=O)NCCOCCOCCOCCNC(=O)[C@@H](NC(=O)[C@@H]1CSSC[C@H](NC(=O)[C@H](N)Cc3ccccc3)C(=O)N[C@@H](Cc3ccc(O)cc3)CN[C@H](Cc3c[nH]c4ccccc34)C(=O)N[C@@H](CCCCN)C(=O)N[C@@H]([C@@H](C)O)C(=O)N1)[C@@H](C)O)[C@]1(C)O[C@H]1[C@H](C)[C@@H]1C[C@@](O)(NC(=O)O1)[C@H](OC)/C=C/C=C(\C)C2 [Conjugate 47] | 2130 | 1270 | 
